For one data set, the target named is HIV integrase (Human immunodeficiency virus type 1 group M subtype B, UniProt P04585). Nature of the data set: integrase inhibition assay (microtiter plate, substrate DNA / target DNA). It counts as biochemical. The conditions noted are these: integrase 30 pmol, incubated at 30° C. for 1 hour, OD at 405 nm, concentration at percent inhibition 50%; for IC50: read-out: MIA, IC50 (ug/ml) (converted). The protocol: The inhibitory activities against integrase of the presnt compounds were determined by the assay described below.
(1) Preparation of DNA Solutions
Substrate DNA and target DNA synthesized by Amersham Pharmacia Biotech, which sequences were indicated below, were dissolved in KTE buffer (composition: 100 mM KCl, 1 mM EDTA, 10 mM Tris-HCl (pH 7.6)) at a concentration of 2 pmol/μl and 5 pmol/μl, respectively. The DNA solutions were heated and then slowly cooled so that they were annealed with each complement.
(Sequence of Substrate DNA)
(2) Calculations of the percent inhibitions (IC50 values of test compounds)
Streptavidin, obtained from Vector Laboratories, was dissolved in 0.1 M carbonate buffer (composition: 90 mM Na2CO3, 10 mM NaHCO3) at a concentration of 40 μg/ml. After coating each well of microtiter plates (obtained from NUNC) with 50 μl of the above solution at 4° C. over night, each well was washed twice with PBS (composition: […], 0.27 mM KCl, 0.43 mM Na2HPO4, 0.14 mM KH2PO4) and blocked with 300 μl of 1% skim milk in PBS for 30 min. Additionally, each well was washed twice with PBS and added with 50 μl of the substrate DNA solution (2 pmol/μl). The microtiter plates were kept at room temperature for 30 min. Then, each well was washed twice with PBS and once with H2O.
Subsequently, to the each well prepared above were added 45 μl of the reaction buffer prepared from 12 μl of the buffer (composition: 150 mM MOPS (pH 7.2), 75 mM MnCl2, 50 mM 2-mercaptoethanol, 25% glycerol, 500 μg/ml bovine serum albumin-fraction V), 1 μl of target DNA (5 pmol/μ), and 32 μl of the distilled water. Additionally, 6 μl of either a test compound in DMSO or DMSO for positive control (PC) was mixed with the above reaction buffer, then 9 μl of an integrase solution (30 pmol) was added thereto and the mixture was mixed well. To the well of negative control (NC) was added 9 μl of the integrase dilution buffer (composition: 20 mM MOPS (pH7.2), 400 mM potassium glutamate, 1 mM EDTA, 0.1% NP-40, 20% glycerol, 1 mM DTT, 4 M urea).
The microtiter plates were incubated at 30° C. for 1 hour. The reaction solution was removed and each well was washed twice with PBS. Subsequently, each well of the microtiter plates was filled with 100 μl of anti-digoxigenin antibody labeled with alkaline phosphatase (Sheep Fab fragment: obtained from Boehringer) and incubated at 30° C. for 1 hour. Then, each well was washed twice with 0.05% Tween20 in PBS and once with PBS. Next, 150 μl of the Alkaline phosphatase reaction buffer (composition: 10 mM p-Nitrophenylphosphate (obtained from Vector Laboratories), 5 mM MgCl2, 100 mM NaCl, 100 mM Tris-HCl (pH 9.5)) was added to each well. The microtiter plates were incubated at 30° C. for 2 hours and the reaction was terminated by the addition of 50 μl of 1 N NaOH solution. The optical density (OD) at 405 nm of each well was measured and the percent inhibition was determined by the following expression. The percent inhibition (%)=100[1−{(C abs.−NC abs.)/(PC abs.−NC abs.)}]
C abs.; the OD of the well of the test compound
NC abs.: the OD of the negative control (NC)
PC abs.: the OD of the positive control (PC)
When the percent inhibition (%) is X % at a concentration of x μg/ml and the percent inhibition (%) is Y % at a concentration of y μg/ml, one of which is more than 50% and the other is less than 50%, IC50 can be determined by the following expression. IC50 (μg/ml)=x−{(X−50)(x−y)/(X−Y)}
Compound No. in the Table 1 is the same as compound No. of the above Examples.

Take `COC(=O)c1ncc2cc(Cc3ccc(F)cc3)cnc2c1O` [Compound A-2, Methyl 3-(4-fluorobenzyl)-8-hydroxy-1,6-naphthylidine-7-carboxylate]: the melting point (in general, the temperature, or range, at which the solid turns liquid) fell in the range of 218 to 219 °C. On HIV integrase, the IC50 was 416 nM.

In turn, `COC(=O)c1nc(NS(C)(=O)=O)c2cc(Cc3ccc(F)cc3)cnc2c1O` [Compound A-9, Methyl 3-(4-fluorobenzyl)-8-hydroxy-5-methanesulfonylamino-1,6-naphthylidine-7-carboxylate] gave a melting point of 205 to 210 °C. The IC50 on HIV integrase was 222 nM. On the same counts, the results for `COC(=O)c1nc(NC(C)=O)c2cc(Cc3ccc(F)cc3)cnc2c1O` [Compound A-10, Methyl 5-acetylamino-3-(4-fluorobenzyl)-8-hydroxy-1,6-naphthylidine-7-carboxylate] are 263 to 267 °C and 379 nM. Regarding `COC(=O)c1nc(C(=O)OC)c2cc(Cc3ccc(F)cc3)cnc2c1O` [Compound A-15, Dimethyl 3-(4-fluorobenzyl)-8-hydroxy-1,6-naphthylidine-5,7-dicarboxylate], the melting point was 191 to 194 °C. At HIV integrase, the IC50 was 783 nM. On to `COC(=O)c1nc(C#CCO)c2cc(Cc3ccc(F)cc3)cnc2c1O` [Compound A-18, Methyl 3-(4-fluorobenzyl)-8-hydroxy-5-(3-hydroxy-1-propynyl)-1,6-naphthylidine-7-carboxylate], for which the melting point fell in the range of 205 to 208 °C. For the same compound, the IC50 at HIV integrase was 655 nM. Compound `COC(=O)c1nc(NS(=O)(=O)N(C)C)c2cc(Cc3ccc(F)cc3)cnc2c1O` [Compound A-26, Methyl 5-[(dimethylamino)sulfonyl]-amino-3-(4-fluorobenzyl)-8-hydroxy-1,6-naphthylidine-7-carboxylate] registered a melting point of 159 to 160 °C. For the same compound, the IC50 on HIV integrase is 345 nM. In turn, `COCCC(=O)Nc1nc(C(=O)OC)c(O)c2ncc(Cc3ccc(F)cc3)cc12` [Compound A-34, 3-(4-Fluorobenzyl)-8-hydroxy-5-(3-methoxy-1-propionyl)amino[1,6]naphthylidine-7-carboxylic acid methyl ester] showed a melting point of 205 to 206 °C. Besides, the IC50 on HIV integrase is 701 nM. `CCOC(=O)Nc1nc(C(=O)OC)c(O)c2ncc(Cc3ccc(F)cc3)cc12` [Compound A-42, 5-[(Ethoxycarbonyl)amino]-3-(4-fluorobenzyl)-8-hydroxy[1,6]naphthylidine-7-carboxylic acid methyl ester] returned a melting point of 247 to 249 °C. Besides, the IC50 on HIV integrase is 576 nM. For the compound `COC(=O)c1nc(C#CCNS(C)(=O)=O)c2cc(Cc3ccc(F)cc3)cnc2c1O` [Compound A-50, 3-(4-Fluorobenzyl)-8-hydroxy-5-[3-(methanesulfonyamino)propyn-1-yl][1,6]naphthylidine-7-carboxylic acid methyl ester], the melting point is 223 to 225 °C. Further, the IC50 at HIV integrase was 248 nM. `COC(=O)c1nc(C(=O)N2CCN(C)CC2)c2cc(Cc3ccc(F)cc3)cnc2c1O` [Compound A-54, 5-(4-Methylpiperadine-1-carbonyl)-3-(4-fluorobenzyl)-8-hydroxy[1,6]naphthylidine-7-carboxylic acid methyl ester]: the melting point lay in the range of 226 to 227 °C. Besides, the IC50 at HIV integrase is 1300 nM. Regarding `COC(=O)c1nc(NC(=O)c2ccco2)c2cc(Cc3ccc(F)cc3)cnc2c1O` [Compound A-66, 3-(4-Fluorobenzyl)-5-(frane-2-carbonyl)amino-8-hydroxy[1,6]naphthylidine-7-carboxylic acid methyl ester], the melting point lay in the range of 200 to 202 °C. For the same compound, the IC50 at HIV integrase was 688 nM. Compound `COCC(C)OC(=O)c1ncc2cc(Cc3ccc(F)cc3)cnc2c1O` (centres unmarked) [Compound A-79, 3-(4-Fluorobenzyl)-8-hydroxy[1,6]naphthylidine-7-carboxylic acid [2-(1-methoxy)propyl]ester] showed a melting point of 130 to 131 °C. Besides, the IC50 on HIV integrase is 351 nM. Take `CC(=O)N1CCC(OC(=O)c2ncc3cc(Cc4ccc(F)cc4)cnc3c2O)CC1` [Compound A-82, 3-(4-Fluorobenzyl)-8-hydroxy[1,6]naphthylidine-7-carboxylic acid 1-acetylpiperidine-4-yl ester]: the melting point was in the range of 163 to 165 °C. On HIV integrase, the IC50 is 260 nM. The corresponding values for `CNC(=O)c1nc(C#CCO)c2cc(Cc3ccc(F)cc3)cnc2c1O` [Compound A-98, 3-(4-Fluorobenzyl)-8-hydroxy-5-(3-hydroxy-1-propyn-1-yl)-[1,6]naphthylidine-7-carboxylic acid methyl amide] are 185 °C and 520 nM. `COC(=O)c1cc(C(=O)O)c2cc(Cc3ccc(F)cc3)cnc2c1O` [Compound I-3, 3-(4-Fluorobenzyl)-8-hydroxy-quinoline-5,7-dicarboxylic acid 7-methylester] showed a melting point of 237 to 239 °C. For the same compound, at HIV integrase, the IC50 was 394 nM. In the case of `O=C(O)c1cc(C(=O)O)c2cc(Cc3ccc(F)cc3)cnc2c1O` [Compound I-4, 3-(4-Fluorobenzyl)-8-hydroxyquinoline-5,7-dicarboxylic acid], the melting point was in the range of 279 to 282 °C. The IC50 at HIV integrase is 352 nM.

Compound `COC(=O)c1cc(C(=O)NCCO)c2cc(Cc3ccc(F)cc3)cnc2c1O` [Compound I-5, 3-(4-Fluorobenzyl)-8-hydroxy-5-(2-hydroxyethylcarbamoyl)quinoline-7-carboxylic acid methylester] showed a melting point of 207 to 208 °C. On HIV integrase, the IC50 was 502 nM. In the case of `COCCNC(=O)c1cc(C(=O)OC)c(O)c2ncc(Cc3ccc(F)cc3)cc12` [Compound I-6], the melting point is 152 to 154 °C. In addition, the IC50 at HIV integrase is 412 nM. On the same counts, the results for `NC(=O)c1cc(C(=O)O)c(O)c2ncc(Cc3ccc(F)cc3)cc12` [Compound I-7, 5-Carbamoyl-3-(4-fluorobenzyl)-8-hydroxyquinoline-7-carboxylic acid] are 265 to 266 °C and 705 nM.

Consider `COC(=O)c1cc(N)c2cc(Cc3ccc(F)cc3)cnc2c1O` [Compound I-8, 5-Amino-3-(4-fluorobenzyl)-8-hydroxyquinoline-7-carboxylic acid methyl ester], for which the melting point lay within 114 to 115 °C. Further, the IC50 on HIV integrase was 398 nM. Consider `COC(=O)c1cc(NC=O)c2cc(Cc3ccc(F)cc3)cnc2c1O` [Compound I-13, 3-(4-Fluorobenzyl)-5-formylamino-8-hydroxyquinoline-7-carboxylic acid methyl ester], for which the IC50 at HIV integrase was 1040 nM. Regarding `COC(=O)c1cc(C(=O)N2CCOCC2)c2cc(Cc3ccc(F)cc3)cnc2c1O` [Compound I-26, (4-Fluorobenzyl)-8-hydroxy-5-(morpholine-4-carbonyl)quinoline-7-carboxylic acid methyl ester], the “MIA, IC50” value on HIV integrase came to 0.37 µg/mL. Same read-out and setting: the value for `COC(=O)c1cc(C(=O)NC(C)C(=O)OC)c2cc(Cc3ccc(F)cc3)cnc2c1O` (centres unmarked) [Compound I-54, (4-Fluorobenzyl)-8-hydroxy-5-(1-methoxycarbonylethylcarbamoyl)quinoline-7-carboxylic acid methyl ester] was 0.38 µg/mL. In the case of `COC(=O)c1cc(C(=O)NCCCO)c2cc(Cc3ccc(F)cc3)cnc2c1O` [Compound I-58, 3-(4-Fluorobenzyl)-8-hydroxy-5-(3-hydroxypropylcarbamoyl)quinoline-7-carboxylic acid methyl ester], on HIV integrase, the IC50 is 388 nM.

These data come from patent US7358249B2, “Heterocyclic compounds having inhibitory activity against HIV integrase” (Shionogi & Co., Ltd., priority 2002, dated 2008).
